The text below walks through data of US20150209309A1, “NACA FOR THE TREATMENT OF CHRONIC OR ACUTE COGNITIVE DYSFUNCTION” (Brighton Biotech, Inc, priority 2014, published 2015).

For data set [1] the following is noted: in vivo.
The conditions of data set [2]: cited from earlier work.

As to `CC(=O)N[C@@H](CS)C(=O)O` [NAC, N-acetyl-L-cysteine], the “crossing of the blood-brain barrier” value in data set [1] is listed as “inability to cross the blood-brain barrier”. Moreover, the “membrane penetration / cell permeability” value in data set [2] is given as “low membrane penetration”.
